From patent US12502362B2, “Inhibitors of nucleotidyltransferase superfamily enzymes as antibiotics” (priority 2017, dated 2025)
Like-named read-outs stand apart in the source and are kept apart here.

How the values were obtained:
Assay type in all cases: cell-based
MDR E. coli = system: MDR E. coli
Excerpt: (§1) All these MDR-bacteria are at least resistant to two classes of the antibiotics among five groups and/or specific antibiotics including quinolones/fluorquinolones, carbapenems, cephalosporins, aminoglycosides and piperacillin-tazobactam.

[1] = system: MDR Acinetobacter baumannii
Excerpt: as §1

Klebsiella pneumonia = assay: Antibiotic susceptibility of Klebsiella pneumonia strains
Excerpt: as §1

Morganella morganii = assay: Antibiotic susceptibility of Morganella morganii strain; conditions: Mm1 (Morganella morganii)
Excerpt: as §1

[2] = system: Enterobacter cloacae complex; assay: Antibiotic susceptibility of Enterobacter cloacae complex strain; conditions: Ecc1 (Enterobacter cloacae complex)
Excerpt: as §1

Citrobacter koseri = assay: Antibiotic susceptibility of Citrobacter koseri strain; conditions: Ck1 (Citrobacter koseri)
Excerpt: as §1

Molecule	Antibiotic susceptibility (MDR E. coli; Ec1 (E. coli))	Antibiotic susceptibility (MDR E. coli; Ec2 (E. coli))	Antibiotic susceptibility (MDR E. coli; Ec3 (E. coli))	Antibiotic susceptibility (MDR E. coli; Ec4 (E. coli))	Antibiotic susceptibility (MDR E. coli; Ec5 (E. coli))	Antibiotic susceptibility ([1]; Ab1 (Acinetobacter baumannii))	Antibiotic susceptibility ([1]; Ab2 (Acinetobacter baumannii))	Antibiotic susceptibility ([1]; Ab3 (Acinetobacter baumannii))	Antibiotic susceptibility ([1]; Ab4 (Acinetobacter baumannii))	Antibiotic susceptibility ([1]; Ab5 (Acinetobacter baumannii))	Antibiotic susceptibility (Klebsiella pneumonia; Kp1 (Klebsiella pneumonia))	Antibiotic susceptibility (Klebsiella pneumonia; Kp6 (Klebsiella pneumonia))	Antibiotic susceptibility (Morganella morganii)	Antibiotic susceptibility [2]	Antibiotic susceptibility (Citrobacter koseri)
CC1(C)S[C@@H]2[C@H](NC(=O)[C@H](N)c3ccccc3)C(=O)N2[C@H]1C(=O)O [AMP, Ampicillin]	R	R	R	R	R	R	R	R	R	R	R	R	R	–	–
CC(C)(O/N=C(\C(=O)N[C@@H]1C(=O)N2C(C(=O)[O-])=C(C[n+]3ccccc3)CS[C@H]12)c1csc(N)n1)C(=O)O [CAZ, Ceftazidime]	R	R	R	R	R	R	R	R	R	R	R	R	R	R	R
Cc1nnc(SCC2=C(C(=O)O)N3C(=O)[C@@H](NC(=O)Cn4cnnn4)[C@H]3SC2)s1 [CFZ, Cefazolin]	R	R	R	R	R	R	R	R	R	R	R	R	R	–	R
C[C@@H](O)[C@H]1C(=O)N2C(C(=O)O)=C(S[C@@H]3CN[C@H](C(=O)Nc4cccc(C(=O)O)c4)C3)[C@H](C)[C@H]12 [ETP, Ertapenem]	S	S	S	S	S	–	–	–	–	–	S	S	S	S	S
CO/N=C(\C(=O)N[C@@H]1C(=O)N2C(C(=O)[O-])=C(C[N+]3(C)CCCC3)CS[C@H]12)c1csc(N)n1 [FEP, Cefepime]	R	R	R	R	R	R	R	R	R	R	R	R	S	–	S
C[C@@H](O)[C@H]1C(=O)N2C(C(=O)O)=C(S[C@@H]3CN[C@H](C(=O)N(C)C)C3)[C@H](C)[C@H]12 [MEM, Meropenem]	S	S	S	S	S	–	–	–	–	–	S	–	–	S	S
Ampicillin-Sulbactam [SAM]	R	I	I	R	R	S	S	S	S	I	R	R	R	–	–
